Measured values published in ChEMBL document CHEMBL3991601, “The target landscape of clinical kinase drugs” (Science, 2017).
Calls of active or inactive are those of the source. Cut-off read from the data, not from the text of the source, for most assays here: actives have a measured Kd and inactives only a lower limit.

Key:
[1] = target: Ribosomal protein S6 kinase beta-1 (Homo sapiens, UniProt P23443)
[2] = target: T1, Signal recognition particle receptor subunit alpha (Homo sapiens, UniProt P08240)
T1 sequence (P08240 whole entry): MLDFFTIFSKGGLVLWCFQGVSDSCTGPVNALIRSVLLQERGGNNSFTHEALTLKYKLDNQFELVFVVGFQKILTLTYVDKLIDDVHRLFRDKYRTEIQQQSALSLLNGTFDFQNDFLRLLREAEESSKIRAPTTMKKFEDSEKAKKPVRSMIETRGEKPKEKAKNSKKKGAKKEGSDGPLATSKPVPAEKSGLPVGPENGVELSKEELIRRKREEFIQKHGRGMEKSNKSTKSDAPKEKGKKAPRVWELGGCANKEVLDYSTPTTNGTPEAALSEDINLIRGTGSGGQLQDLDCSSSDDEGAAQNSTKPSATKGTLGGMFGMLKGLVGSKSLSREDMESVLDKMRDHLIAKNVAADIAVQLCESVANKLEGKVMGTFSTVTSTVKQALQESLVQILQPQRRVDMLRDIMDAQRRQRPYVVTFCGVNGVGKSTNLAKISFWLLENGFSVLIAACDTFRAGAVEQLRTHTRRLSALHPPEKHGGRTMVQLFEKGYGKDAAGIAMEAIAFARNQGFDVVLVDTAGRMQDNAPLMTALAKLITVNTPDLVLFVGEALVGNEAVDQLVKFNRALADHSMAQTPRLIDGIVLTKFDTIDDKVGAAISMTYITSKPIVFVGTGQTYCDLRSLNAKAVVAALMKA

[3] = target: T2, RNA cytidine acetyltransferase (Homo sapiens, UniProt Q9H0A0)
T2 sequence (Q9H0A0 whole entry): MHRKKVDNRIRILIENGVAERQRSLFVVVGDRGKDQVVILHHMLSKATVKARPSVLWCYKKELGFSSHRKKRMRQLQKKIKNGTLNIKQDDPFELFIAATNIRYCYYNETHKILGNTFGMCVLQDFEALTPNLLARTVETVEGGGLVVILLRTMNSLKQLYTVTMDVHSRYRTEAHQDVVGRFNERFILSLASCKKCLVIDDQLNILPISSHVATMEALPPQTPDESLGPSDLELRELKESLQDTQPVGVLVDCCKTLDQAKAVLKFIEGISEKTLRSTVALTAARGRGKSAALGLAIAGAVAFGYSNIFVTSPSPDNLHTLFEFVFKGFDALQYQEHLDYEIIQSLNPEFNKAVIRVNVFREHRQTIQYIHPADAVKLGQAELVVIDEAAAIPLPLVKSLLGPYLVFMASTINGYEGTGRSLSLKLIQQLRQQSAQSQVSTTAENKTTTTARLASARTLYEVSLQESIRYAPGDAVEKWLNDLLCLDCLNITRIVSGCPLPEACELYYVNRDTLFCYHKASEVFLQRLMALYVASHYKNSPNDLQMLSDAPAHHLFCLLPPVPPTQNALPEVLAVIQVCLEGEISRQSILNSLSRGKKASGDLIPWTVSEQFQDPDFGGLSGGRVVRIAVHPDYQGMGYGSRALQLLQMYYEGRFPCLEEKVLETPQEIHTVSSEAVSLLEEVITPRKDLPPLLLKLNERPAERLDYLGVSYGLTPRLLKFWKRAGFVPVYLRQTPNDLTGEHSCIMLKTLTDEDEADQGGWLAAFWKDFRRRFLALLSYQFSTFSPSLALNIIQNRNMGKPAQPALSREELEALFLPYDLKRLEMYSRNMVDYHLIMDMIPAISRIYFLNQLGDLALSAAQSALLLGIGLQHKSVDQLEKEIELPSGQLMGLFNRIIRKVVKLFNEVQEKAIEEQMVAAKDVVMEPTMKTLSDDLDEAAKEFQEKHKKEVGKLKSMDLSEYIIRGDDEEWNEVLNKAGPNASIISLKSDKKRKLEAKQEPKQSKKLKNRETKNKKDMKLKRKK

[4] = target: Mitogen-activated protein kinase 3 (Homo sapiens, UniProt P27361)
Mitogen-activated protein kinase 3, sequence (P27361 whole entry): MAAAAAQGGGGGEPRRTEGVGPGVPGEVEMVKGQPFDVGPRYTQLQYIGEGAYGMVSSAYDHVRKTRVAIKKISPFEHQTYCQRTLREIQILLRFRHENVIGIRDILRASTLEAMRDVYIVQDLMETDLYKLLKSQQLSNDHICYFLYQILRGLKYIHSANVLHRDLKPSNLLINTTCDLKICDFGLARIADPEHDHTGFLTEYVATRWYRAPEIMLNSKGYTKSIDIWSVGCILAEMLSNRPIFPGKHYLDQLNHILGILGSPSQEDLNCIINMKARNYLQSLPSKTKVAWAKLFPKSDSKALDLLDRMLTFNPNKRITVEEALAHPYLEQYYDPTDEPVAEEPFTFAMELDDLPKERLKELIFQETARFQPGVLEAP

[5] = target: Rho-associated protein kinase 2 (Homo sapiens, UniProt O75116)
Rho-associated protein kinase 2, sequence (O75116 whole entry): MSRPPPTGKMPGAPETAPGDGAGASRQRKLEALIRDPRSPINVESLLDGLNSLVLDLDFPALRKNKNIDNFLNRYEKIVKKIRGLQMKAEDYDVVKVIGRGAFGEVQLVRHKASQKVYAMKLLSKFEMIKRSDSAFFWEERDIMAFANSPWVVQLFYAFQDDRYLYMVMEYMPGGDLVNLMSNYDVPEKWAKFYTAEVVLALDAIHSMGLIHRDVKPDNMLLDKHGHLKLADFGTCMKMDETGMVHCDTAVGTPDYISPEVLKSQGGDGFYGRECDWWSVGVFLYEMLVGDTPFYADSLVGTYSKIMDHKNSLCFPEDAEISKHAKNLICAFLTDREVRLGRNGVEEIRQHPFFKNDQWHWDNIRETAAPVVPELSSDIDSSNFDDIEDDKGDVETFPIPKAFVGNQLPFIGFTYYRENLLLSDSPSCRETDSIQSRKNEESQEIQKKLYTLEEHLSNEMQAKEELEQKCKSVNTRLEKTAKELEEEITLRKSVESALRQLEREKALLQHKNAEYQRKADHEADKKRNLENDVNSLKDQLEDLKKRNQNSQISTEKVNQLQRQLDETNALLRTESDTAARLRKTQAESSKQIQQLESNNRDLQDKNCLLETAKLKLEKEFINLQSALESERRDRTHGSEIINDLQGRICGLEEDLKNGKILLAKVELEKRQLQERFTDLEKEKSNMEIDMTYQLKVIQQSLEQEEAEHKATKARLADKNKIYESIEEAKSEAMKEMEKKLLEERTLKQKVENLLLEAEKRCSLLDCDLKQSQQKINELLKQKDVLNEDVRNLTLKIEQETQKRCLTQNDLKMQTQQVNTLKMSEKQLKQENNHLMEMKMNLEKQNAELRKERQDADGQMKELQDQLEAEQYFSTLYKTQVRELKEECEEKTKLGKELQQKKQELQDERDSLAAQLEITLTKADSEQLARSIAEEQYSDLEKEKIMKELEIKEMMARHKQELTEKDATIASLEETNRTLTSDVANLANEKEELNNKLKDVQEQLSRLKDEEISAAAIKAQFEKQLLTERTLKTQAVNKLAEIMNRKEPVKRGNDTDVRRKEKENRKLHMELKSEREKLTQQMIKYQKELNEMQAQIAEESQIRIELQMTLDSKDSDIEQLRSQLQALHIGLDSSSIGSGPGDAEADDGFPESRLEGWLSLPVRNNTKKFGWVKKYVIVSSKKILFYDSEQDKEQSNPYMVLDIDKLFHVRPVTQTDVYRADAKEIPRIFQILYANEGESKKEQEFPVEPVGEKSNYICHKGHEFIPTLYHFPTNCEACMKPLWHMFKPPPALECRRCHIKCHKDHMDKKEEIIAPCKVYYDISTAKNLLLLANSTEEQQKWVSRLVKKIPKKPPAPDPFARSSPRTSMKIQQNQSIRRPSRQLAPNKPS

[6] = target: Cyclin-dependent kinase 6 (Homo sapiens, UniProt Q00534)
Cyclin-dependent kinase 6, sequence (Q00534 whole entry): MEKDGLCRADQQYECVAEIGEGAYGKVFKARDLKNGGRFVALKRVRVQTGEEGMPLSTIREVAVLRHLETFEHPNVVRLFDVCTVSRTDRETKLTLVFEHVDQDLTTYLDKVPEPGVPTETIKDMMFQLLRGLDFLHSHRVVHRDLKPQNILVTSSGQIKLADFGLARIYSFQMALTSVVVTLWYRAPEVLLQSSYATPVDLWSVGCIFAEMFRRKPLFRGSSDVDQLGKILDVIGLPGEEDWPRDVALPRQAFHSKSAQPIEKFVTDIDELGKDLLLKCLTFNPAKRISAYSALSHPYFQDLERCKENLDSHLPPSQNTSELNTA

[7] = target: Glycogen synthase kinase-3 beta (Homo sapiens, UniProt P49841)
Glycogen synthase kinase-3 beta, sequence (P49841 whole entry): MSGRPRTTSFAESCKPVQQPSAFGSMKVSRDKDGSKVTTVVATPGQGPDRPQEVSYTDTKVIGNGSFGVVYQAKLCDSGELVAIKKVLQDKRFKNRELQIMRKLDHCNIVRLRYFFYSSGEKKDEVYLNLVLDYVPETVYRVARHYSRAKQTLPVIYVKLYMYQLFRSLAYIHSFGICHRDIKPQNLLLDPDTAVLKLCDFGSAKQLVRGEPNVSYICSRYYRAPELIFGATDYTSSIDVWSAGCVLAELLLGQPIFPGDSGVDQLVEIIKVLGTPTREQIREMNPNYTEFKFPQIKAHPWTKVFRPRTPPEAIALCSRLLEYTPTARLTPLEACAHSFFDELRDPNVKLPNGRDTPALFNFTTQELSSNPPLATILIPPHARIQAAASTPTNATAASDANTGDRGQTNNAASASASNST

[8] = target: Dual specificity tyrosine-phosphorylation-regulated kinase 1A (Homo sapiens, UniProt Q13627)
[9] = target: T3, Uncharacterized protein FLJ45252 (Homo sapiens, UniProt Q6ZSR9); conditions: read-out: Kd apparent; k-562, colo 205, sk-n-be(2) and mv-4-11
T3 sequence (Q6ZSR9 whole entry): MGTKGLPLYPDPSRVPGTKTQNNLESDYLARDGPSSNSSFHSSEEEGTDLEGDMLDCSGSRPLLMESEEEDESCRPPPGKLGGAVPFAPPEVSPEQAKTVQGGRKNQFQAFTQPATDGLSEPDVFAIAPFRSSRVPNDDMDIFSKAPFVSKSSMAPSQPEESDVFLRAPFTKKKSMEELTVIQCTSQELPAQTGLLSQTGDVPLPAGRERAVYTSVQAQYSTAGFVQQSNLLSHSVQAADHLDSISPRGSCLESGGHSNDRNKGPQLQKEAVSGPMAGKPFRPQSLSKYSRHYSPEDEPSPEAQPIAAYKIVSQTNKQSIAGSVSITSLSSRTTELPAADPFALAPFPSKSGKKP

[10] = target: Platelet-derived growth factor receptor beta (Homo sapiens, UniProt P09619)
Platelet-derived growth factor receptor beta, sequence (P09619 whole entry): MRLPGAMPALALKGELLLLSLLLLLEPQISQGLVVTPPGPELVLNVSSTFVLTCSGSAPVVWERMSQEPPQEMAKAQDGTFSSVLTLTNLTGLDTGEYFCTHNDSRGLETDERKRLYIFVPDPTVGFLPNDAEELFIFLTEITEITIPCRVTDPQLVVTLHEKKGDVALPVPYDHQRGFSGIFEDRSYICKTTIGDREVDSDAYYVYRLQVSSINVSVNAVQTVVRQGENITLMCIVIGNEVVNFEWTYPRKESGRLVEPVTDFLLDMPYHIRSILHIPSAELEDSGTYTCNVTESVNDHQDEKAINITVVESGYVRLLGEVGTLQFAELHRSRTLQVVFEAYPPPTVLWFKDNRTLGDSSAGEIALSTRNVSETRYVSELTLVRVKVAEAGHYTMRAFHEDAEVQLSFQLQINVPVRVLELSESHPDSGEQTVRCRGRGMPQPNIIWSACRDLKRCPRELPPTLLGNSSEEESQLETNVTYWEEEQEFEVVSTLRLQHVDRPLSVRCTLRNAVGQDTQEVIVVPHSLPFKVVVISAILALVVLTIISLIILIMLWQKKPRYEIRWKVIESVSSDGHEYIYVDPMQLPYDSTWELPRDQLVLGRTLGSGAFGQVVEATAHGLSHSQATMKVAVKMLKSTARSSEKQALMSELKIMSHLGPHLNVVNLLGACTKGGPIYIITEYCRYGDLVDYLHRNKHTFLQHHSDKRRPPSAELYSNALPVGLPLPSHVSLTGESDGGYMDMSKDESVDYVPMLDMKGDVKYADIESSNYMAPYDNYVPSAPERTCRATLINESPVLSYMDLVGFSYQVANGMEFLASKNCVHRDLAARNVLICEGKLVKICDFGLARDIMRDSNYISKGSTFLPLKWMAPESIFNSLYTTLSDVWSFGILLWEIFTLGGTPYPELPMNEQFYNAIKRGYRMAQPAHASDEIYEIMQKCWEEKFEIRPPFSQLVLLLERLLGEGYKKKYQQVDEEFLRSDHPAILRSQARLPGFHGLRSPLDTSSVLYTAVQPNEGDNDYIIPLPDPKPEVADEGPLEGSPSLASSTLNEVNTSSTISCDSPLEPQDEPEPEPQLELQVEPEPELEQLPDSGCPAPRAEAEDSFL

TGF-beta receptor type-1 = target: T4, TGF-beta receptor type-1 (Homo sapiens, UniProt P36897)
T4 sequence (P36897 whole entry): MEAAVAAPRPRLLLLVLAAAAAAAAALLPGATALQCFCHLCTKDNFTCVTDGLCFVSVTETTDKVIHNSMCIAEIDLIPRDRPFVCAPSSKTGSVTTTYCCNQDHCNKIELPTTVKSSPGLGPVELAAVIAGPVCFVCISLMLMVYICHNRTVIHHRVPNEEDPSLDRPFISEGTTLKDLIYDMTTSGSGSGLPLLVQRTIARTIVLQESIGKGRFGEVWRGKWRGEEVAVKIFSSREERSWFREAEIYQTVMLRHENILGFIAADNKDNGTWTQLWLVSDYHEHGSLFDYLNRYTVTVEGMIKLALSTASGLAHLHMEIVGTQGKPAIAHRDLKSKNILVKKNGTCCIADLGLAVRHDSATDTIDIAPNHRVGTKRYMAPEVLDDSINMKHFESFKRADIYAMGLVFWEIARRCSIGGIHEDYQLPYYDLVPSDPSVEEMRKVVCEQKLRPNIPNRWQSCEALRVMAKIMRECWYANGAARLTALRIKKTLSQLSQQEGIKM
Note: in the data inactive means no Kd found up to 30 µM.

Ribosomal protein S6 kinase beta-1, sequence (P23443 whole entry): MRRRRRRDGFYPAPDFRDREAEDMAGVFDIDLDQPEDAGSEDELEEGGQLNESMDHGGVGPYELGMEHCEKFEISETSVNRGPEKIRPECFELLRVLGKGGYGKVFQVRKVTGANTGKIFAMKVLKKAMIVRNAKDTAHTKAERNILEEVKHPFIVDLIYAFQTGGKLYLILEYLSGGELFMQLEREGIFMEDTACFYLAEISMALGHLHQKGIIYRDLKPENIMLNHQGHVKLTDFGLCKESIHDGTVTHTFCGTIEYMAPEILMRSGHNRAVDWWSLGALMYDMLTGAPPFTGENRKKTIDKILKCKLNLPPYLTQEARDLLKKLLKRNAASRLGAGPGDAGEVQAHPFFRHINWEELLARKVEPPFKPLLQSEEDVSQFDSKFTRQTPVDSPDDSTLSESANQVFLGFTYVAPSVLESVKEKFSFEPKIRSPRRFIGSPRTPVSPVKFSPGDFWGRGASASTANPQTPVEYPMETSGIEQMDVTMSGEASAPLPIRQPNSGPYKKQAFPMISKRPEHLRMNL

| SMILES | Kd [1] | Kd [2] | Kd [3] | Kd [4] | Kd [5] | Kd [6] | Kd [7] | Kd [8] | Kd [9] | Kd [10] | Kd (TGF-beta receptor type-1) |
| --- | --- | --- | --- | --- | --- | --- | --- | --- | --- | --- | --- |
| CNS(=O)(=O)Nc1nccc(Cc2c(C)c3ccc(Oc4ncccn4)cc3oc2=O)c1F [AVUTOMETINIB] | > 30 µM (inactive) | > 30 µM (inactive) | > 30 µM (inactive) | > 30 µM (inactive) | > 30 µM (inactive) | > 30 µM (inactive) | > 30 µM (inactive) | > 30 µM (inactive) | > 30 µM (inactive) | > 30 µM (inactive) | > 30 µM (inactive) |
| COc1cc(CCc2cc(NC(=O)c3ccc(N4C[C@@H](C)N[C@@H](C)C4)cc3)n[nH]2)cc(OC)c1 [AZD-4547] | > 30 µM (inactive) | > 30 µM (inactive) | > 30 µM (inactive) | > 30 µM (inactive) | > 30 µM (inactive) | > 30 µM (inactive) | > 30 µM (inactive) | > 30 µM (inactive) | > 30 µM (inactive) | 0.288 µM (active) | > 30 µM (inactive) |
| Cc1cc([C@@H](C)Nc2ccccc2C(=O)O)c2nc(N3CCOCC3)cc(=O)n2c1 [AZD-6482] | > 30 µM (inactive) | > 30 µM (inactive) | > 30 µM (inactive) | > 30 µM (inactive) | > 30 µM (inactive) | > 30 µM (inactive) | > 30 µM (inactive) | > 30 µM (inactive) | > 30 µM (inactive) | > 30 µM (inactive) | > 30 µM (inactive) |
| COc1ccc(-c2ccc3c(N4CCOC[C@@H]4C)nc(N4CCOC[C@@H]4C)nc3n2)cc1CO [AZD-8055] | > 30 µM (inactive) | > 30 µM (inactive) | > 30 µM (inactive) | > 30 µM (inactive) | > 30 µM (inactive) | > 30 µM (inactive) | > 30 µM (inactive) | > 30 µM (inactive) | > 30 µM (inactive) | > 30 µM (inactive) | > 30 µM (inactive) |
| C[C@@H](Nc1cc(F)cc(F)c1)c1cc(C(=O)N(C)C)cc2c(=O)cc(N3CCOCC3)oc12 [AZD-8186] | > 30 µM (inactive) | > 30 µM (inactive) | > 30 µM (inactive) | > 30 µM (inactive) | > 30 µM (inactive) | > 30 µM (inactive) | > 30 µM (inactive) | > 30 µM (inactive) | > 30 µM (inactive) | > 30 µM (inactive) | > 30 µM (inactive) |
| Cc1ccc(NC(=O)c2ccc(CN3CC[C@H](N(C)C)C3)c(C(F)(F)F)c2)cc1Nc1nccc(-c2cncnc2)n1 [BAFETINIB] | > 30 µM (inactive) | > 30 µM (inactive) | > 30 µM (inactive) | > 30 µM (inactive) | > 30 µM (inactive) | > 30 µM (inactive) | > 30 µM (inactive) | > 30 µM (inactive) | > 30 µM (inactive) | 3.13 µM (active) | > 30 µM (inactive) |
| CCS(=O)(=O)N1CC(CC#N)(n2cc(-c3ncnc4[nH]ccc34)cn2)C1 [BARICITINIB] | > 30 µM (inactive) | > 30 µM (inactive) | > 30 µM (inactive) | > 30 µM (inactive) | 0.756 µM (active) | > 30 µM (inactive) | > 30 µM (inactive) | > 30 µM (inactive) | 0.078 µM (active) | > 30 µM (inactive) | > 30 µM (inactive) |
| Cc1cc2c(F)c(Oc3ncnn4cc(OC[C@@H](C)OC(=O)[C@H](C)N)c(C)c34)ccc2[nH]1 [BRIVANIB ALANINATE] | > 30 µM (inactive) | > 30 µM (inactive) | > 30 µM (inactive) | > 30 µM (inactive) | > 30 µM (inactive) | > 30 µM (inactive) | > 30 µM (inactive) | > 30 µM (inactive) | > 30 µM (inactive) | 1.89 µM (active) | > 30 µM (inactive) |
| COC(=O)N[C@@H](C)CNc1nccc(-c2cn(C(C)C)nc2-c2cc(Cl)cc(NS(C)(=O)=O)c2F)n1 [ENCORAFENIB] | > 30 µM (inactive) | > 30 µM (inactive) | > 30 µM (inactive) | > 30 µM (inactive) | > 30 µM (inactive) | > 30 µM (inactive) | 0.425 µM (active) | > 30 µM (inactive) | > 30 µM (inactive) | > 30 µM (inactive) | > 30 µM (inactive) |
| CO[C@H]1C[C@@H]2CC[C@@H](C)[C@@](O)(O2)C(=O)C(=O)N2CCCC[C@H]2C(=O)O[C@H]([C@H](C)C[C@@H]2CC[C@@H](OCCO)[C@H](OC)C2)CC(=O)[C@H](C)/C=C(\C)[C@@H](O)[C@@H](OC)C(=O)[C@H](C)C[C@H](C)/C=C/C=C/C=C/1C [EVEROLIMUS] | > 30 µM (inactive) | > 30 µM (inactive) | > 30 µM (inactive) | > 30 µM (inactive) | > 30 µM (inactive) | > 30 µM (inactive) | > 30 µM (inactive) | > 30 µM (inactive) | > 30 µM (inactive) | > 30 µM (inactive) | > 30 µM (inactive) |
| COCCNCc1ccc(-c2cc3nccc(Oc4ccc(NC(=S)NC(=O)Cc5ccc(F)cc5)cc4F)c3s2)nc1 [GLESATINIB] | > 30 µM (inactive) | > 30 µM (inactive) | > 30 µM (inactive) | > 30 µM (inactive) | > 30 µM (inactive) | > 30 µM (inactive) | > 30 µM (inactive) | > 30 µM (inactive) | > 30 µM (inactive) | 2.78 µM (active) | > 30 µM (inactive) |
| O=C1NC(=O)/C(=C/c2ccc3nccc(-c4ccncc4)c3c2)S1 [GSK-1059615] | > 30 µM (inactive) | > 30 µM (inactive) | > 30 µM (inactive) | > 30 µM (inactive) | > 30 µM (inactive) | > 30 µM (inactive) | > 30 µM (inactive) | 0.314 µM (active) | 0.078 µM (active) | > 30 µM (inactive) | > 30 µM (inactive) |
